The subject of this assay is normal human dermal fibroblasts (NHDF). Put plainly: Collagen synthesis boosting activity, Sirius Red staining of collagen in fibroblast monolayer (96 well). Type of assay: cell-based. The following applies: 48 h incubation. The method, then:
Method for determining the collagen synthesis boosting activity of selected substances of natural or synthetic origin.
Fibroblasts are responsible for collagen synthesis in the dermis layer of the skin. The test system involves culturing normal human dermal fibroblasts (NHDF) in a “monolayer” culture in 96 well MTPs, incubating them over a defined period with test substances and then determining the increase in collagen qualitatively by a staining method.
The principle of the assay is based on histological, specific staining of the soluble collagen (predominantly type I and III collagen) with the assistance of the dye Sirius Red (Direct Red 80). Sirius Red is an anionic dye having sulfonic acid groups attached to its side chains. These sulfonic acid groups react with the side chain groups of the amino acids (proline, hydroxyproline, lysine and hydroxylysine) predominantly occurring in collagen, it being necessary for an intact collagen structure to be present.
The model used for the assay design is the procedure described in B. J. Walsh et al., Analytical Biochemistry 203, 187-190 (1992) for the quantitative determination of collagen on the 96 well scale. […]
After a 24 h adaptation phase for the NHDF, the cells are incubated (37° C., 5% CO2) for 48 h with the incubation solution and corresponding control solutions (solvent and blank). […] The absorption of the resultant dye solution can be determined photometrically at 540 nm.
Thanks to the linear relationship between collagen content and the OD values arising from staining, the increase in OD is determined for qualitative assessment of the collagen synthesis boosting effect. To this end, the mean and standard deviations of the controls and the test samples are calculated and then a background or blank correction is made. […]
The synergy index (SI) values of the ternary mixtures according to the invention were calculated according to Kull (literature: F. C. Kull et al, Applied Microbiology vol. 9, p. 538-541 (1961); D. C. Steinberg, Cosmetics & Toiletries vol. 115(11), 59-62 (2000) by means of the following equation. […]

[1] abbreviates: usage concentration 1.020 mg/ml.

Structures are written as SMILES. “And” between values parts separate entries of the source, which are not always exact repeats. Equal values may be shown once.

Regarding `O=C1O[C@H]([C@@H](O)CO)C([O-])=C1OP(=O)([O-])[O-].O=C1O[C@H]([C@@H](O)CO)C([O-])=C1OP(=O)([O-])[O-].[Mg+2].[Mg+2].[Mg+2]` [Magnesium ascorbyl phosphate (Bio1300/1), Magnesium ascorbyl phosphate], under setting [1], the “Collagen synthesis boost [%], relative to untreated control” value came to 141.13%.
In the case of `O=C1O[C@H]([C@@H](O)CO)C([O-])=C1OP(=O)([O-])[O-].O=C1O[C@H]([C@@H](O)CO)C([O-])=C1OP(=O)([O-])[O-].[Mg+2].[Mg+2].[Mg+2]` [Magnesium ascorbyl phosphate (Bio172), Magnesium ascorbyl phosphate], the “Collagen synthesis boost [%], relative to untreated control” value (usage concentration 0.362 mg/ml) was 66.97% and 67.44%.
For the molecule `O=C1O[C@H]([C@@H](O)CO)C([O-])=C1OP(=O)([O-])[O-].[Na+].[Na+].[Na+]` [Sodium ascorbyl phosphate (Bio1586), Sodium ascorbyl phosphate], under setting [1], the “Collagen synthesis boost [%], relative to untreated control” value stood at 144.57%.

Values taken from patent US20090232915A1, “MIXTURES WITH A COLLAGEN SYNTHESIS BOOSTING ACTION” (SYMRISE GmbH & Co., KG, priority 2008, published 2009).
